Experimental data taken from ChEMBL document CHEMBL1201862, “PubChem BioAssay data set” (2004).
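Step 1: Grow cells in 96-well plates. Step 2: Expose to compound for 48 hours at 5 concentrations. Step 3: Interpolate endpoints linearly; if unreached, use highest concentration. GI50: concentration for 50% inhibition of growth.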 Calls of active or inactive are those of the source. Cut-off read from the data, not from the text of the source: active = GI50 up to about 1.1 µM and inactive = higher.

Experiments:
Experiment in all cases: DTP human tumour cell line panel, 48 h
M14 = system: M14
NCI-H522 = system: NCI-H522
SK-MEL-5 = system: SK-MEL-5
MDA-MB-231 = system: MDA-MB-231
NCI/ADR-RES = system: NCI/ADR-RES
ACHN = system: ACHN
NCI-H23 = system: NCI-H23
OVCAR-5 = system: OVCAR-5
CCRF-CEM = system: CCRF-CEM
SF-295 = system: SF-295
MDA-N = system: MDA-N
SR = system: SR
UACC-257 = system: UACC-257
HL-60 = system: HL-60
HOP-92 = system: HOP-92
Malme-3M = system: Malme-3M
SW-620 = system: SW-620
RPMI-8226 = system: RPMI-8226
SNB-75 = system: SNB-75
OVCAR-3 = system: OVCAR-3

Measured: GI50

N#CC(C#N)=C1C(C#N)=C(N)NC12OCCO2
inactive: M14 > 100 µM | NCI-H522 > 100 µM | SK-MEL-5 > 100 µM | MDA-MB-231 > 100 µM | NCI/ADR-RES > 100 µM | ACHN > 100 µM | NCI-H23 > 100 µM | OVCAR-5 > 100 µM | CCRF-CEM > 100 µM | SF-295 > 100 µM | MDA-N > 100 µM | SR > 100 µM | UACC-257 > 100 µM | HL-60 > 100 µM | HOP-92 > 100 µM | Malme-3M > 100 µM | SW-620 > 100 µM | RPMI-8226 > 100 µM

C=C(Br)CN(CC(=C)Br)C(C)=O
inactive: M14 > 100 µM | NCI-H522 > 100 µM | SNB-75 > 100 µM | SK-MEL-5 > 100 µM | MDA-MB-231 > 100 µM | NCI/ADR-RES > 100 µM | ACHN > 100 µM | NCI-H23 > 100 µM | OVCAR-5 > 100 µM | CCRF-CEM > 100 µM | SF-295 > 100 µM | MDA-N > 100 µM | SR > 100 µM | UACC-257 > 100 µM | HL-60 > 100 µM | OVCAR-3 > 100 µM | Malme-3M > 100 µM | SW-620 > 100 µM | RPMI-8226 > 100 µM

COC(=O)[C@]12CC[C@H]3CN(C(=O)OCc4ccccc4)[C@H]([C@H]31)[C@H](c1ccccc1)N2
inactive: M14 70 µM | NCI-H522 52.1 µM | SNB-75 > 100 µM | SK-MEL-5 22.9 µM | MDA-MB-231 59.3 µM | NCI/ADR-RES 64.6 µM | ACHN 92 µM | NCI-H23 77.4 µM | OVCAR-5 > 100 µM | CCRF-CEM 41.3 µM | SF-295 58.1 µM | MDA-N 57.3 µM | SR 42.2 µM | UACC-257 39.5 µM | HL-60 39.6 µM | HOP-92 72.3 µM | OVCAR-3 74.1 µM | SW-620 > 100 µM | RPMI-8226 36.1 µM

CC12Nc3c(Cl)cc(Cl)cc3N1C(=O)c1ccccc12 (configuration not stated)
inactive: NCI-H522 97.1 µM | SNB-75 > 100 µM | SK-MEL-5 > 100 µM | MDA-MB-231 > 100 µM | NCI/ADR-RES 91.8 µM | ACHN > 100 µM | NCI-H23 > 100 µM | OVCAR-5 > 100 µM | CCRF-CEM > 100 µM | SF-295 > 100 µM | MDA-N > 100 µM | SR 63.8 µM | UACC-257 > 100 µM | HL-60 51.6 µM | HOP-92 17.9 µM | OVCAR-3 > 100 µM | Malme-3M > 100 µM | SW-620 > 100 µM | RPMI-8226 > 100 µM

CS/C=C\C(=O)O[C@H]1C[C@@H]2[C@@H](O)c3occ(C)c3C[C@]2(C)[C@@H](C)C1
inactive: M14 20.3 µM | NCI-H522 23.2 µM | SK-MEL-5 14.9 µM | MDA-MB-231 22.4 µM | NCI/ADR-RES 18.5 µM | ACHN 24.9 µM | NCI-H23 30.3 µM | OVCAR-5 34.8 µM | CCRF-CEM 27.3 µM | SF-295 29.6 µM | MDA-N 20.3 µM | SR 35.1 µM | UACC-257 14.8 µM | HL-60 14.9 µM | HOP-92 25.8 µM | OVCAR-3 16.4 µM | Malme-3M 18.3 µM | SW-620 33.3 µM | RPMI-8226 30.4 µM

CC(C)=CCC/C(C)=C/CC/C(C)=C/CC(CO)N(C)CC/C=C(\C)CCC=C(C)C (configuration not stated)
inactive: M14 1.79 µM | NCI-H522 2.09 µM | SNB-75 12 µM | SK-MEL-5 8.39 µM | MDA-MB-231 9.86 µM | NCI/ADR-RES 4.62 µM | ACHN 11.6 µM | NCI-H23 7.96 µM | OVCAR-5 7.13 µM | CCRF-CEM 3.03 µM | SF-295 7.1 µM | MDA-N 3.43 µM | SR 2.17 µM | UACC-257 5.2 µM | HOP-92 2.7 µM | OVCAR-3 14.2 µM | Malme-3M 2.99 µM | SW-620 3.62 µM | RPMI-8226 3.09 µM

c1ccc2[nH]c3[nH]c4[nH]c5ccccc5[nH]c4[nH]c3[nH]c2c1
inactive: M14 > 100 µM | NCI-H522 > 100 µM | SNB-75 21 µM | SK-MEL-5 > 100 µM | MDA-MB-231 > 100 µM | NCI/ADR-RES > 100 µM | ACHN > 100 µM | NCI-H23 > 100 µM | OVCAR-5 44.5 µM | CCRF-CEM > 100 µM | SF-295 66.2 µM | MDA-N > 100 µM | SR > 100 µM | UACC-257 > 100 µM | HL-60 > 100 µM | OVCAR-3 > 100 µM | Malme-3M > 100 µM | SW-620 > 100 µM | RPMI-8226 > 100 µM
